Consider two compounds from patent US12516341B2, “Use of flavonoid glycoside substance and glycosyltransferase gene for regulating resistance of plants to weeds” (ZHONGKENONGFU(BEIJING) BIOTECHNOLOGY CO., LTD, priority 2020, dated 2026).

One experiment relates to lettuce. Kind of experiment: External application of compound to lettuce seeds on agar, root length. Format: in vivo. As to conditions: external application concentration 500 mg/L in 0.8% agar; 28° C. in the dark for 3 days; compared with control. How it is done: (§1) The reasons for choosing lettuce and barnyardgrass in the external application experiment were: lettuce was a common indicator crop reported in the literature for external application of allelopathic experiments, while barnyardgrass was the main weed in paddy fields.
(§2) (1) The compound of tricin-5-O-glucopyranoside was dried to a powder with a centrifugal concentrator and weighed, and an appropriate amount of sterile water was added to give a final concentration of 10 mg/mL.
(§3) (2) 500 mL of 0.8% agar was prepared and sterilized in an autoclave.
(§4) (3) The sterilized agar was placed in an ultra-clean bench and cooled to room temperature (note: the medium was not allowed to solidify), and then 4.75 mL of medium was accurately pipetted into a sterilized 10 mL centrifuge tube. 250 μL of the 10 mg/mL compound solution was added to give a final compound concentration of 500 mg/L. The medium containing the compound was quickly poured into a 10 cm×10 cm square dish, and the square dish was shaken quickly to make the medium evenly spread in the square dish. A medium in which 250 μL of sterile water was added to 4.75 mL of the medium was used as a control.
(§5) (4) Barnyardgrass and lettuce seeds were washed several times with distilled water, respectively, and then dried on sterile filter paper. […]
(§6) (7) Phenotypic statistics: the root length of each treated material was counted after 3 days. […]

The subject of a further experiment is barnyardgrass. Kind of experiment: External application of compound to barnyardgrass seeds on agar, root length. The format is in vivo. As to conditions: external application concentration 500 mg/L in 0.8% agar; 28° C. in the dark for 3 days; compared with control. As for the experimental part: as §1, §2, §3, §4, §5, §6
Experiment [1] has as its system Os07g0503900 recombinant protein. Kind of experiment: In vitro enzyme activity of Os07g0503900 (glycosylation of tricin with UDPG, UPLC-MS detection). The format is biochemical, rice. As to conditions: glycosyl donor UDPG; 30° C. for 1 h; pH 7.0; product tricin-5-O-glucopyranoside. As for the experimental part:
(1) The enzymatic reaction system was: Tris-HCl (pH 7.0, 50 mM, containing 10 mM DTT) 38 μL, 10 mM glycosyl acceptor (the glycosyl acceptor of Os07g0503900 was tricin) 1 μL, 100 mM glycosyl donor (UDPG) 1 μL, and 10 μL of the Os07g0503900 recombinant protein obtained in step 2 (Os07g0503900 protein concentration was 3.77 μg/μL). The reaction was carried out in a water bath at 30° C. for 1 h, and then quenched with an equal volume of methanol. A sample of the protein obtained from the E. coli transformed into the pMAL-c2X empty vector according to the above-mentioned step 2 was added as a control.
(2) Enzyme activity product detection: The sample in (1) was centrifuged at 4° C., 12,000 rpm for 10 min, and 30 μL was taken for detection by UPLC-MS (Agilent 1290UPLC-6540Q-TOF). Mobile phase A phase: 0.1% formic acid aqueous solution, % represented volume percentage; B phase: acetonitrile. Elution gradient: 0-2 min: 5% B-10% B, 2-12 min: 10% B-25% B, 12-18 min: 25% B-70% B, 18-23 min: 70% B-90% B, 23-25 min: 90% B-100% B, 25-30 min: 100% B, post-run for 5 min, % all represented volume percentage. The flow rate was 0.3 mL/min, the column temperature: 40° C., and the injection volume: 5 μL. Electrospray ionization (ESI) was used for detection in positive ion mode. The carrier gas was high-purity nitrogen at a pressure of 40 psi and a temperature of 325° C.

Each structure is given as a SMILES string.

As for `COc1cc(-c2cc(=O)c3c(O[C@@H]4O[C@H](CO)[C@@H](O)[C@H](O)[C@H]4O)cc(O)cc3o2)cc(OC)c1O` [tricin-5-O-glucopyranoside], the “inhibitory effect on the growth of lettuce (root length)” value in the experiment with lettuce is “very significant ability to inhibit the growth”. Also, in the experiment with barnyardgrass, the “inhibitory effect on the growth of barnyardgrass (root length)” value is given as “very significant ability to inhibit the growth”.

Take `COc1cc(-c2cc(=O)c3c(O)cc(O)cc3o2)cc(OC)c1O` [tricin]: in experiment [1], the “glycosylation of tricin by Os07g0503900 in vitro (new chromatographic peak vs empty vector control)” value was “Os07g0503900 can catalyze the glycosylation of tricin in vitro”. The “inhibitory effect on the growth of lettuce (root length)” value in the experiment with lettuce is recorded as “not obvious”. Moreover, in the experiment on barnyardgrass, the “inhibitory effect on the growth of barnyardgrass (root length)” value is recorded as “not obvious”.
